Our source for the Ki values is BindingDB's records for PubMed 9067310 (Institut De Recherches Servier, 1997).

The target of assay [1] is T1, 5-hydroxytryptamine receptor 1A (Homo sapiens, UniProt P08908).
T1 sequence (P08908 whole entry): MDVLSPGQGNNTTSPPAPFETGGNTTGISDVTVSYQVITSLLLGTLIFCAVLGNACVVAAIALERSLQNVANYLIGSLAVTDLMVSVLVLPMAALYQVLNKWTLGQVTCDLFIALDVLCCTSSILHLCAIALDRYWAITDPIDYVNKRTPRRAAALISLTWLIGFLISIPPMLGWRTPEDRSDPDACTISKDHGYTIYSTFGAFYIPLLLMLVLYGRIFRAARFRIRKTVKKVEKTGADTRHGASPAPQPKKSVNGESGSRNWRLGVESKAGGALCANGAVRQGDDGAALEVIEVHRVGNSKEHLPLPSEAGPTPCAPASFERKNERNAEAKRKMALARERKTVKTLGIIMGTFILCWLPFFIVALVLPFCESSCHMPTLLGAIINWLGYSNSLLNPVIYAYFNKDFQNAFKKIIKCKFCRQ

The next assay addresses D(2) dopamine receptor (Homo sapiens, UniProt P14416).

Sequence of D(2) dopamine receptor (P14416 whole entry): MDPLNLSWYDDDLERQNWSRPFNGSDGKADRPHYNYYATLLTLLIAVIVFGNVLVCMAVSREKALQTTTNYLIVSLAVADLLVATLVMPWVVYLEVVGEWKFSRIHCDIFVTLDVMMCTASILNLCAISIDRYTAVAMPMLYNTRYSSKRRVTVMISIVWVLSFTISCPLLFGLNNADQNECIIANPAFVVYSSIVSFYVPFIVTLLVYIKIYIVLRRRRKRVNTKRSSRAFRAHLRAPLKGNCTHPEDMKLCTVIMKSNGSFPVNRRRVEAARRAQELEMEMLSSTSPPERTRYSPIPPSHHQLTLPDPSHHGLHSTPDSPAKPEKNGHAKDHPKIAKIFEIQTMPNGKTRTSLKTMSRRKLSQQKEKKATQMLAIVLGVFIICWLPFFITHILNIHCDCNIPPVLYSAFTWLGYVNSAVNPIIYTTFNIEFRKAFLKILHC

What is called Ki is the equilibrium dissociation constant of an inhibitor or competing ligand from its target. As to `CCCN(CCC)C1CCc2ccc(O)cc2C1` (stereo not drawn), the inhibition constant Ki in assay [1] is 0.265 µM.

For the compound `CC(C)(C)NCC(O)COc1cccc2c1SCCC2` (single isomer, unassigned; (-)) [TERTATOLOL(-)], the values for the Ki (in assay [1]; on D(2) dopamine receptor) were 0.0067 µM and more than 10 µM, respectively.
